From US5008252A, “Process for inhibiting herpes simplex virus-specified thymidine kinase” (The University of North Carolina at Chapel Hill, priority 1987, dated 1991)

Columns and labels:
HSV-1 (KOS) dThd kinase = HSV-1 (KOS) dThd kinase (Human alphaherpesvirus 1 strain KOS, UniProt P17402); experiment: dThd kinase assay in vitro; type: biochemical, HSV-1 (strain KOS)
From the text: Enzyme purification, enzyme assays, IC50 and Ki determinations. The cellular cytosolic dThd kinase used to determine the Ki values was isolated from KB6B cells. The HSV-1 and HSV-2dThd kinases were extracted from dThd kinase-deficient HeLa BU cells infected with HSV-1 (strain KOS) and HSV-2(strain 333), respectively. All of the dThd kinases were purified using affinity column chromatography procedures described by Lee, L. S. and Cheng, Y.-C. (J. Biol. Chem. 251:2600-2604 (1976)). The dThd kinase assay used was the same as that described by Cheng, Y.-C. & Ostrander, M. (J. Biol. Chem. 251:2605-2610 (1976)). Incubations were conducted at 37° C. for 60 min and the Ki and 50% […] concentration (IC50) values were determined as described by Cheng, Y.-C. and Prusoff, W. H. (Biochem. Pharmacol. 22:3099-3108 (1976)).

[1] = molecular target: T1, HSV-2 (333) dThd kinase in infected HeLa BU cells (Human herpesvirus 2, UniProt P04407); experiment: Intracellular dThd kinase activity ([14C]dThd phosphorylation); type: cell-based, HSV-2 (strain 333)
T1 construct: kinases were extracted from dThd kinase-deficient HeLa BU cells infected with HSV-1 (strain KOS) and HSV-2(strain 333); endogenous in cells; host or cells: HeLa BU cells (dThd kinase deficient) infected with HSV-2 (strain 333)
Method: Intracellular dThd kinase activity. HeLa S3 or HeLa BU cells (1.5×10^6 /ml) were mock infected or infected with HSV-1 or HSV-2at 3 PFU/cell and incubated at 37° C. for a 1 h adsorption period. The medium was then removed, and the cells were washed with growth medium and resuspended at a cell density of 5×10^5 cells/ml in RPMI 1640 medium supplemented with kanamycin (100 μg/ml) and 5% dialyzed fetal bovine serum. At 9 h post-HSV infection, [14C]dThd (0.16 μCi/ml; 1 μM dThd) and different amounts of 5'-Et-dThd were added to the medium depending on experimental conditions. At the end of the labeling period (1 h), the cells were pelleted by centrifugation, washed with phosphate-buffered-saline (PBS) and resuspended in a small volume of PBS. Aliquots were then pipetted directly onto DE81 discs which were immediately washed in 100% EtOH. The DE81 discs were washed two additional times in 100% EtOH, and then radioactivity associated with the discs was measured by scintillation counting in 5 ml of aqueous counting fluid. In this manner, total intracellular dThd kinase activity was determined from the sum of radioactive acid soluble dThd nucleotides plus the acid insoluble dTMP associated with DNA, both precipitated directly on the DE81 discs.

[2] = system: HSV-1 (strain KOS)-infected HeLa BU cells; experiment: Virus yield assay; type: cell-based
Method: (§1) Cell and virus growth inhibition. Cell growth inhibition and the virus yield assay were performed in accordance with the protocol described by Cheng, Y.-C., Grill, S.P., Ruth, J. and Bergstrom, D. E. (Antimicrob. Agents Chemother. 18:957-961 (1980)) with the exceptions that all studies were done using 5% dialyzed fetal bovine serum; the multiplicity of infection was 3 PFU/cell and Vero cells were used instead of CV-1 cells for titration in the virus yield assays.

mammalian cell growth = experiment: Cell growth inhibition; type: cell-based
Method: as §1

T1 sequence (P04407 whole entry): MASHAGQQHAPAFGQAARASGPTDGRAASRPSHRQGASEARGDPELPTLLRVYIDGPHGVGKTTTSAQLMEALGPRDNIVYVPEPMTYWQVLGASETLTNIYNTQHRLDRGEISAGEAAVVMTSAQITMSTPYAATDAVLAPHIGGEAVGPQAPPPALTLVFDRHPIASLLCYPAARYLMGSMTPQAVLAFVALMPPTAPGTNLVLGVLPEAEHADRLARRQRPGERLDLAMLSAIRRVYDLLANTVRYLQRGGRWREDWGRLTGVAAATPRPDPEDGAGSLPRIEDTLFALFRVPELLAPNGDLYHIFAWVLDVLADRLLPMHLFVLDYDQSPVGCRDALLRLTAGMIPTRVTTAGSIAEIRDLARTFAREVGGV
HSV-1 (KOS) dThd kinase, sequence (P17402 whole entry, looked up): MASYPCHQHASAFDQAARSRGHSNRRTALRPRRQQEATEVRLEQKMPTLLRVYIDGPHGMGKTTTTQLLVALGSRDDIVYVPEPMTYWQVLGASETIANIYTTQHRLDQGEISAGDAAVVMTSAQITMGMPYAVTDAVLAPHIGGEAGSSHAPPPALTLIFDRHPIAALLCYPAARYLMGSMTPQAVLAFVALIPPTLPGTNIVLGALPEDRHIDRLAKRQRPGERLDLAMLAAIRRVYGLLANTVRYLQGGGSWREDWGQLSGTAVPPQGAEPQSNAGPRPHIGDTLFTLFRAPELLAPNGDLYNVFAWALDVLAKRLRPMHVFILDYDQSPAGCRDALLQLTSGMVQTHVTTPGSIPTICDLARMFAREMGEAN

Substance: 5'-ethynylthymidine [5'-Et-dThd]
- inhibition of dThd kinase activity (HSV-1 (KOS) dThd kinase; 10 μM 5'-Et-dThd, purified enzyme, 100 μM [14C]dThd): 50%
- Ki (HSV-1 (KOS) dThd kinase; HSV-1 KOS, affinity column-purified dThd kinase, ± standard deviation): 0.09 µM
- IC50 (HSV-1 (KOS) dThd kinase; HSV-1 KOS, enzyme extracts of infected HeLa BU cells, 100 μM dThd): 6 µM
- type of inhibition (kinetic studies) (HSV-1 (KOS) dThd kinase; with respect to dThd): competitive inhibitor
- dThd phosphorylating activity, % of untreated control ([1]; 25 μM, HSV-2-infected HeLa BU, 9 h post infection, 1 h labeling): 80%
- inhibition of dThd kinase-mediated [14C]dThd phosphorylation ([1]; 100 μM, HSV-2-infected HeLa BU cells, 9 h post infection): 50%
- IC50 ([1]; HSV-2 333, intracellular [14C]dThd phosphorylation, HeLa BU cells): 100 µM
- effect on the antiviral effect of aphidicolin ([2]; 0.2 μM aphidicolin with varying concentrations of 5'-Et-dThd): significantly enhanced
- effect on virus yield ([2]; 5'-Et-dThd by itself): no effect
- % PFU with a 5'-Et-dThd conc. of 2.5 μM ([2]; Table II, drug (μM as in row; None = 5'-Et-dThd alone) plus 2.5 μM 5'-Et-dThd): 97%
- % PFU with a 5'-Et-dThd conc. of 25 μM ([2]; Table II, drug (μM as in row; None = 5'-Et-dThd alone) plus 25 μM 5'-Et-dThd): 96%
- % PFU with a 5'-Et-dThd conc. of 100 μM ([2]; Table II, drug (μM as in row; None = 5'-Et-dThd alone) plus 100 μM 5'-Et-dThd): 99%
- %PFU with a 5'-Et-dThd conc. of 5 μM ([2]; Table III, aphidicolin 0.2 μM (None = 5'-Et-dThd alone) plus 5 μM 5'-Et-dThd): 100%
- %PFU with a 5'-Et-dThd conc. of 20 μM ([2]; Table III, aphidicolin 0.2 μM (None = 5'-Et-dThd alone) plus 20 μM 5'-Et-dThd): 100%
- % PFU with a 5'-Et-dThd conc. of 100 μM ([2]; Table III, aphidicolin 0.2 μM (None = 5'-Et-dThd alone) plus 100 μM 5'-Et-dThd): 100%
- inhibition of mammalian cell growth (mammalian cell growth): nor does the analog inhibit mammalian cell growth
